Experimental data from US20160106102A1, “KNOWN AND NEW HETEROCYCLIC COMPOUNDS AS PEST CONTROL AGENTS” (BAYER CROPSCIENCE AKTIENGESELLSCHAFT, priority 2013, published 2016).
Like-named read-outs stand apart in the source and are kept apart here.

Tests used:
Myzus persicae = Myzus persicae - sachet test; format: in vivo; conditions: 100% = all animals killed
Protocol: Myzus persicae—Sachet Test Solvent: 2% by vol. of N-methylpyrrolidone • 2% by vol. of diacetone alcohol To produce an appropriate active ingredient formulation, the active ingredient is mixed with the specified amounts of solvent and the concentrate is diluted to the desired concentration with water. The active ingredient formulation is added to a specific nutrient medium in the desired concentration by pipetting. This plate is sealed and combined with a further plate populated with the green peach aphid (Myzus persicae). After the desired time, the kill in % is determined. 100% means that all the animals have been killed; 0% means that no animals have been killed.

[1] = log P determination by LC-MS in the acidic range; format: physicochemical
Excerpt: The LC-MS determination in the acidic range is effected at pH 2.7 using 0.1% aqueous formic acid and acetonitrile (contains 0.1% formic acid) as eluents, linear gradient from 10% acetonitrile to 95% acetonitrile. Alternatively, the determination is effected in the acidic range at pH 2.3 using 0.1% aqueous phosphoric acid and acetonitrile as eluents; linear gradient from 10% acetonitrile to 95% acetonitrile.

[2] = application rate of 30 ppm in nutrient medium
[3] = Table 3, HPLC on reversed-phase column (C 18), 55° C., acidic range (pH 2.7 or pH 2.3)
[4] = application rate of 6 ppm in nutrient medium
[5] = Table 2, compounds of the formula (I-2), acidic range pH 2.7 or pH 2.3
[6] = pH 2.7, values given in the synthesis examples and NMR lists, read-out: HPLC-MS: log P
[7] = amines of the formula (II-1), acidic range pH 2.7 (0.1% formic acid/acetonitrile) or pH 2.3 (0.1% phosphoric acid/acetonitrile)

| SMILES | log P (acid) ([1]; LC-MS in the acidic range) | efficacy (kill in %) (Myzus persicae; [2]) | also measured |
| --- | --- | --- | --- |
| O=C(Nc1cnn(-c2ncc(C(F)(F)F)cc2Cl)n1)c1cccnc1 [Compound I-3-5] |  | 100% | log P (acid) [1, 3]: 2.12 |
| CSc1c(C#N)c(NC(=O)c2cccnc2)nn1C [Compound I-1-270] | 0.96 | 80% |  |
| Cc1cc(C)nc(-n2cnc(NC(=O)c3cccnc3)n2)n1 [Compound I-2-22] |  | 80% | log P (acid) [1, 5]: 0.86 |
| Cc1cc(N(CC(F)F)C(=O)c2cccnc2)nn1Cc1ncccn1 [Compound I-1-265] | 1.19 | 100% | efficacy (kill in %) (Myzus persicae; [4]): 100% |
| O=C1c2ccccc2C(=O)N1c1cc(Br)[nH]n1 [2-(5-Bromo-1H-pyrazol-3-yl)-1H-isoindole-1,3(2H)-dione] |  |  | chromatographic logP [1, 6]: 1.83 |
| O=C(Nc1ccn(Cc2ncc(C(F)(F)F)cc2Cl)n1)c1ccc(Cl)nc1 [Compound I-1-118, 6-Chloro-N-(1-{[3-chloro-5-(trifluoromethyl)pyridin-2-yl]methyl}-1H-pyrazol-3-yl)nicotinamide] |  |  | chromatographic logP ([1]; pH 2.7, LC-MS in the acidic range, read-out: log P (acid)): 2.64; chromatographic logP [1, 6]: 2.64 |
| CCCCNC(=O)Cn1nnc(NC(=O)c2cccnc2)n1 [Compound I-4-11] |  |  | log P (acid) ([1]; Table 4, HPLC on reversed-phase column (C 18), 55° C., acidic range (pH 2.7 or pH 2.3)): 0.97 |
| Cc1cc(N)nn1Cc1cccc(OC(F)(F)F)c1 [II-1-11] |  |  | log P (acid) [1, 7]: 1.39 |
| O=C(Nc1ncn(Cc2ccc(Cl)cc2)n1)c1cccnc1 [Compound I-2-13] |  |  | log P (acid) [1, 5]: 1.36 |
| Cc1c(Br)c(N)nn1Cc1ncccn1 [II-1-34] |  |  | log P (acid) [1, 7]: 0.92 |
| COc1nn(Cn2nc(NC(=O)c3ccnnc3)cc2C)c(=O)n1C1CC1 [Compound I-1-152] | 1.17 |  |  |
| Cc1cc(N)nn1-c1cnccn1 [II-1-6] |  |  | log P (acid) [1, 7]: 0.8 |
| Cc1ccnc(Cn2nc(N)cc2C)n1 [II-1-16] |  |  | log P (acid) [1, 7]: 0.02 |
| Cc1cc([N+](=O)[O-])nn1-c1ncccn1 [2-(5-Methyl-3-nitro-1H-pyrazol-1-yl)pyrimidine] |  |  | chromatographic logP [1, 6]: 1.41 |
| Cc1cc(N)nn1CC1CC1(Cl)Cl (stereo not drawn) [II-1-53] |  |  | log P (acid) [1, 7]: 1.12 |
| CCc1cc(N)nn1Cc1ccc(Cl)nc1 [II-1-19] |  |  | log P (acid) [1, 7]: 1.11 |
| Nc1cc(C2CC2)n(Cc2ccccc2)n1 [II-1-2] |  |  | log P (acid) [1, 7]: 1.36 |
| Cc1cc(N)nn1C(C)C#N (stereo not drawn) [II-1-64] |  |  | log P (acid) [1, 7]: 0.02 |
| O=C(Nc1cnn(-c2ccc(Cl)cc2)n1)c1cccnc1 [Compound I-3-4] |  |  | log P (acid) [1, 3]: 2.43 |

Now from value to compound, other results behind:

| log P (acid) ([1]; LC-MS in the acidic range) | SMILES | efficacy (kill in %) (Myzus persicae; [2]) | also measured |
| --- | --- | --- | --- |
| 1.7 | Cc1cc(NC(=O)c2cccnc2)nn1-c1ccccc1 [Compound I-1-349] | 100% |  |
| 2.29 | Cc1cc(NC(=O)c2cccnc2)nn1C(=O)NCc1ccccc1Cl [Compound I-1-323] | 100% | efficacy (kill in %) (Myzus persicae; [4]): 100% |
| 0.95 | Cc1cc(NC(=O)c2cccnc2)nn1C(=O)NCc1ncccn1 [Compound I-1-334] | 100% | efficacy (kill in %) (Myzus persicae; [4]): 100% |
| 2 | Cc1cc(NC(=O)c2cccnc2)nn1Cc1nc2cc(Cl)ccc2o1 [Compound I-1-340] | 100% | efficacy (kill in %) (Myzus persicae; [4]): 100% |
| 1.29 | Cc1cc(NC(=O)c2cccnc2)nn1C(=O)N1CCCC1 [Compound I-1-161] | 100% | efficacy (kill in %) (Myzus persicae; [4]): 80% |
| 2.02 | Cc1ccc(-n2nc(NC(=O)c3cccnc3)cc2C)cc1 [Compound I-1-193] |  |  |
| 3.23 | Cc1cc(NC(=O)c2cnc(Cl)c(Cl)c2)nn1Cc1ccc(F)cc1 [Compound I-1-97] |  |  |
| 2.71 | Cc1cc(NC(=O)c2cncc(Br)c2)nn1Cc1cccc(F)c1 [Compound I-1-107] |  |  |
| 0.92 | Cc1cc(NC(=O)c2ccnnc2)nn1Cn1nc(C)n(C2CC2)c1=O [Compound I-1-151] |  |  |
| 2.59 | Cc1cc(NC(=O)c2cccnc2)nn1-c1ccc(Cl)c(Cl)c1 [Compound I-1-206] |  |  |
| 1.92 | Cc1cc(NC(=O)c2cccnc2)nn1C(=O)c1cccc(Cl)c1 [Compound I-1-127] |  |  |
